Laboratory results as given in ChEMBL document CHEMBL4811281, “Identification of aryl sulfonamides as novel and potent inhibitors of NaV1.5” (Bioorg Med Chem Lett, 2021).
pIC50, pKi: −log10 of the molar value. Blank lines part the entries; values can stand above or below the compound they belong to. The source made the active and inactive calls. The rule behind the calls is not given here.

Assays:
iPSC-CM [1] = assay: Anti-arrythmic activity in human iPSC-derived cardiomyocytes assessed as maximum diastolic membrane potential at 100 nM in presence of 15 to 30 nM ATX-II by current clamp analysis; assay type: functional, cell-based
[2] = molecular target: Voltage-dependent N-type calcium channel subunit alpha-1B (Homo sapiens) (UniProt Q00975); assay: Inhibition of Cav2.2 (unknown origin) by voltage clamp assay
[3] = molecular target: Voltage-gated potassium channel KCNC2 (Homo sapiens) (UniProt Q96PR1); assay: Inhibition of Kv3.2 (unknown origin) by voltage clamp method
[4] = molecular target: Potassium voltage-gated channel subfamily A member 5 (Homo sapiens) (UniProt P22460); assay: Inhibition of Kv1.5 (unknown origin) by voltage clamp method
iPSC-CM [5] = assay: Anti-arrythmic activity in human iPSC-derived cardiomyocytes assessed as AP amplitude at 100 nM in presence of 15 to 30 nM ATX-II by current clamp analysis; assay type: functional, cell-based
[6] = molecular target: Voltage-dependent T-type calcium channel subunit alpha-1I (Homo sapiens) (UniProt Q9P0X4); assay: Inhibition of Cav3.3 (unknown origin) by voltage clamp assay
Homo sapiens [7] = species: Homo sapiens; assay: Selectivity ratio of IC50 for human Nav1.2 to IC50 for human Nav1.5
[8] = molecular target: 5-hydroxytryptamine receptor 3A (Homo sapiens) (UniProt P46098); assay: Inhibition of 5HT3A channel (unknown origin) by voltage clamp assay
[9] = molecular target: Potassium voltage-gated channel subfamily B member 1 (Homo sapiens) (UniProt Q14721); assay: Inhibition of Kv2.1 (unknown origin) by voltage clamp method
Homo sapiens [10] = species: Homo sapiens; assay: Inhibition of GABA channel (unknown origin) by voltage clamp assay
[11] = molecular target: Potassium/sodium hyperpolarization-activated cyclic nucleotide-gated channel 4 (Homo sapiens) (UniProt Q9Y3Q4); assay: Inhibition of HCN4 (unknown origin) by voltage clamp method
Homo sapiens [12] = species: Homo sapiens; assay: Inhibition of Kv4.2/KChIP2.2 (unknown origin) by voltage clamp method
Homo sapiens [13] = species: Homo sapiens; assay: Selectivity ratio of IC50 for human Nav1.6 to IC50 for human Nav1.5
[14] = molecular target: Voltage-dependent T-type calcium channel subunit alpha-1G (Homo sapiens) (UniProt O43497); assay: Inhibition of Cav3.1 (unknown origin) by voltage clamp assay
[15] = molecular target: Transient receptor potential cation channel subfamily V member 1 (Homo sapiens) (UniProt Q8NER1); assay: Inhibition of TRPV1 (unknown origin) by voltage clamp assay
Homo sapiens [16] = species: Homo sapiens; assay: Selectivity ratio of IC50 for inhibition of human Nav1.5 expressed in HEK293 cells assessed as inhibition of peak current to IC50 for inhibition of human Nav1.5 expressed in HEK293 cells assessed as inhibition of late current; assay type: cell-based
Homo sapiens [17] = species: Homo sapiens; assay: Selectivity ratio of IC50 for human Nav1.1 to IC50 for human Nav1.5
[18] = molecular target: Potassium/sodium hyperpolarization-activated cyclic nucleotide-gated channel 2 (Homo sapiens) (UniProt Q9UL51); assay: Inhibition of HCN2 (unknown origin) by voltage clamp method
[19] = molecular target: T1, Sodium channel protein type 5 subunit alpha (Homo sapiens, UniProt Q14524); assay: Inhibition of human Nav1.5 by automated voltage clamp electrophysiology
[20] = Inhibition of human Nav1.5 VSD4 R1628A mutant by automated voltage clamp electrophysiology
[21] = molecular target: Sodium channel protein type 5 subunit alpha (Homo sapiens, UniProt Q14524, R814A); assay: Inhibition of human Nav1.5 VSD2 R814A mutant by automated voltage clamp electrophysiology
[22] = Intrinsic clearance in human liver microsomes; assay type: ADME, Microsome; details: read-out: CLH
[23] = Inhibition of human Nav1.5 VSD4 R1634A mutant by automated voltage clamp electrophysiology
[24] = Inhibition of human Nav1.5 VSD4 R1622A mutant by automated voltage clamp electrophysiology
[25] = Inhibition of human Nav1.5 VSD4 R1625A mutant by automated voltage clamp electrophysiology
[26] = Inhibition of human Nav1.5 VSD4 R1631A mutant by automated voltage clamp electrophysiology
[27] = Intrinsic clearance in mouse liver microsomes; assay type: ADME, Microsome; details: read-out: CLH
[28] = AUC in FVB mouse at 1 mg/kg, iv; assay type: ADME, organism-based; design: dose 1 mg/kg; details: in vivo
[29] = Drug uptake in FVB mouse brain at 10 mg/kg, po measured after 2 hrs; assay type: ADME, organism-based; details: read-out: Drug uptake
Cytochrome P450 2C9 = Cytochrome P450 2C9 (Homo sapiens, UniProt P11712); assay: Inhibition of CYP2C9 (unknown origin); assay type: ADME
[30] = Inhibition of human Nav1.5 VSD4 F1759A mutant by automated voltage clamp electrophysiology
[31] = Oral bioavailability in FVB mouse at 10 mg/kg; assay type: ADME, organism-based; details: in vivo
[32] = Volume of distribution at steady state in FVB mouse at 1 mg/kg, iv; assay type: ADME, organism-based; details: in vivo, read-out: Vdss
[33] = Clearance in FVB mouse at 1 mg/kg, iv; assay type: ADME, organism-based; details: in vivo
Cytochrome P450 1A2 = Cytochrome P450 1A2 (Homo sapiens, UniProt P05177); assay: Inhibition of CYP1A2 (unknown origin); assay type: ADME
Cytochrome P450 2C19 = Cytochrome P450 2C19 (Homo sapiens, UniProt P33261); assay: Inhibition of CYP2C19 (unknown origin); assay type: ADME
[34] = Plasma concentration in FVB mouse at 10 mg/kg, po measured after 2 hrs; assay type: ADME, organism-based
[35] = Cmax in FVB mouse at 10 mg/kg, po; assay type: ADME, organism-based; design: route oral, dose 10 mg/kg; details: in vivo
[36] = molecular target: T1, Sodium channel protein type 5 subunit alpha; assay: Displacement of [3H]BNZA from Nav1.5 (unknown origin)
[37] = Half life in FVB mouse at 1 mg/kg, iv; assay type: ADME, organism-based; details: in vivo
[38] = AUC in FVB mouse at 10 mg/kg, po; assay type: ADME, organism-based; design: dose 10 mg/kg; details: in vivo
[39] = Ratio of drug level in brain to plasma in FVB mouse at 10 mg/kg, po measured after 2 hrs; assay type: ADME, organism-based; details: read-out: BPR
Cytochrome P450 2D6 = Cytochrome P450 2D6 (Homo sapiens, UniProt P10635); assay: Inhibition of CYP2D6 (unknown origin); assay type: ADME
[40] = Half life in FVB mouse at 10 mg/kg, po; assay type: ADME, organism-based; details: in vivo
Cytochrome P450 3A4 = Cytochrome P450 3A4 (Homo sapiens, UniProt P08684); assay: Inhibition of CYP3A4 (unknown origin); assay type: ADME
Sequence of Cytochrome P450 3A4 (P08684 whole entry): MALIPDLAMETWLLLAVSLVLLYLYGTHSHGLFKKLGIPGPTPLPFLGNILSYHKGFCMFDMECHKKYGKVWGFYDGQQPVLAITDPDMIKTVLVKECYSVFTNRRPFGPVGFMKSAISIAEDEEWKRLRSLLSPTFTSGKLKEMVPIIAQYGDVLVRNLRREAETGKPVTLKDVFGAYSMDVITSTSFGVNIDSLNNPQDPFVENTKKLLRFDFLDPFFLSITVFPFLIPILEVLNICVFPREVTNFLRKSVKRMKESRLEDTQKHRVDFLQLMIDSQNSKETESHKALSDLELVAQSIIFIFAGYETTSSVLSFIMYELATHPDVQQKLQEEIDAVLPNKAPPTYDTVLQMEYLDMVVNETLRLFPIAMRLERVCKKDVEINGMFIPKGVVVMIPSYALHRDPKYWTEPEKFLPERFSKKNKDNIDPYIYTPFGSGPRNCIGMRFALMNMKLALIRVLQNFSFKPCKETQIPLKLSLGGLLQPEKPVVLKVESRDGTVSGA

T1 sequence (Q14524 whole entry): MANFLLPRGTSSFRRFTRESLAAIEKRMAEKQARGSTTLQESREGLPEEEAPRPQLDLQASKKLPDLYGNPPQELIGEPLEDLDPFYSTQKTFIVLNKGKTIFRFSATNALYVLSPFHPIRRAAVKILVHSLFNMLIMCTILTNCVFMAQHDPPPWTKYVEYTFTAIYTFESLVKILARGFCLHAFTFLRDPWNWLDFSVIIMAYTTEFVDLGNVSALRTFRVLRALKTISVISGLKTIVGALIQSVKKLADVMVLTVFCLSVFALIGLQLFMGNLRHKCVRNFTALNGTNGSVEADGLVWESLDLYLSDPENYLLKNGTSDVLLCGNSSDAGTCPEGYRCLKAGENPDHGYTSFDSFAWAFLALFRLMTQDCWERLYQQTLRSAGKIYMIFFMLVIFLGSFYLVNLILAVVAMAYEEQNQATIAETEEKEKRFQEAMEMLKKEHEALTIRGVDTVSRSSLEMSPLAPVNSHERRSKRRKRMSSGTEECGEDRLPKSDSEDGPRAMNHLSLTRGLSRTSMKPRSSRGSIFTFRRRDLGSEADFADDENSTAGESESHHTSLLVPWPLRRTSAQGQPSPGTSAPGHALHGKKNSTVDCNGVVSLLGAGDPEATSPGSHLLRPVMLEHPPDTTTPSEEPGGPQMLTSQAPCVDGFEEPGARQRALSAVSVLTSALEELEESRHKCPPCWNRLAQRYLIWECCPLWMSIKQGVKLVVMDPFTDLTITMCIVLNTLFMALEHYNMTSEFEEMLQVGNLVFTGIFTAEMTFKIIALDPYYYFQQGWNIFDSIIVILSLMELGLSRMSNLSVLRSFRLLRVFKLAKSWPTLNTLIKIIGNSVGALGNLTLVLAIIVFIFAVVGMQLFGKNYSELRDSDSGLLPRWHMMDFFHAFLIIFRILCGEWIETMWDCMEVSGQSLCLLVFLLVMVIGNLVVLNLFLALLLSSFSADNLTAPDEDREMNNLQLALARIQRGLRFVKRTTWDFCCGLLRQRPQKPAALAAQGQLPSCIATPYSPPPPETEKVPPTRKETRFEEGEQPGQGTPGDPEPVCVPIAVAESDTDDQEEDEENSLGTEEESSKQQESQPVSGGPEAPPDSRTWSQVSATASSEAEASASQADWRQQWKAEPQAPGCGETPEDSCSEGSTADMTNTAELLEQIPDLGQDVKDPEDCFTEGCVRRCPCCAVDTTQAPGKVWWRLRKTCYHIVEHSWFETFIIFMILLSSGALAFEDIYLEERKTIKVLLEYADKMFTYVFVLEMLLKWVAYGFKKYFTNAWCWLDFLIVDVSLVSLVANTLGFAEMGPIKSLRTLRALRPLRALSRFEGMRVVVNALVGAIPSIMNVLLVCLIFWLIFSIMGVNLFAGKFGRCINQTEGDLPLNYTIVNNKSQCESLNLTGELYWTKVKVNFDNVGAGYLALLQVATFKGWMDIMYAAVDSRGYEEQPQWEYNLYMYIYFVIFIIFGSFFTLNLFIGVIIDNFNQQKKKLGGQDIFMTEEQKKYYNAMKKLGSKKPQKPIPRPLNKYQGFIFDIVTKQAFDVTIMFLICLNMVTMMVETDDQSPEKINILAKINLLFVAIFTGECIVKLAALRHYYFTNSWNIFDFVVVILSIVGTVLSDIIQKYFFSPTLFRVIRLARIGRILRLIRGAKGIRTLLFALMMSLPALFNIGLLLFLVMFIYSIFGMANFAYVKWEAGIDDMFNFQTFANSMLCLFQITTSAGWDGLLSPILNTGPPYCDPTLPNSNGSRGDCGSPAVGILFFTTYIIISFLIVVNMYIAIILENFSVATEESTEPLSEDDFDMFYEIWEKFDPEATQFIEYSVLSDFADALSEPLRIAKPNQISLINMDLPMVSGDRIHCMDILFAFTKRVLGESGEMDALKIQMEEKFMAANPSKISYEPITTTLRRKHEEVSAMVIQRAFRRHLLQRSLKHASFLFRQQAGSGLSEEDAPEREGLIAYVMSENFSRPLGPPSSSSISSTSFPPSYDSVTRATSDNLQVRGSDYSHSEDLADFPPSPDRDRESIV
Sequence of Sodium channel protein type 5 subunit alpha (Homo sapiens, UniProt Q14524, R814A) (Q14524 whole entry R814A): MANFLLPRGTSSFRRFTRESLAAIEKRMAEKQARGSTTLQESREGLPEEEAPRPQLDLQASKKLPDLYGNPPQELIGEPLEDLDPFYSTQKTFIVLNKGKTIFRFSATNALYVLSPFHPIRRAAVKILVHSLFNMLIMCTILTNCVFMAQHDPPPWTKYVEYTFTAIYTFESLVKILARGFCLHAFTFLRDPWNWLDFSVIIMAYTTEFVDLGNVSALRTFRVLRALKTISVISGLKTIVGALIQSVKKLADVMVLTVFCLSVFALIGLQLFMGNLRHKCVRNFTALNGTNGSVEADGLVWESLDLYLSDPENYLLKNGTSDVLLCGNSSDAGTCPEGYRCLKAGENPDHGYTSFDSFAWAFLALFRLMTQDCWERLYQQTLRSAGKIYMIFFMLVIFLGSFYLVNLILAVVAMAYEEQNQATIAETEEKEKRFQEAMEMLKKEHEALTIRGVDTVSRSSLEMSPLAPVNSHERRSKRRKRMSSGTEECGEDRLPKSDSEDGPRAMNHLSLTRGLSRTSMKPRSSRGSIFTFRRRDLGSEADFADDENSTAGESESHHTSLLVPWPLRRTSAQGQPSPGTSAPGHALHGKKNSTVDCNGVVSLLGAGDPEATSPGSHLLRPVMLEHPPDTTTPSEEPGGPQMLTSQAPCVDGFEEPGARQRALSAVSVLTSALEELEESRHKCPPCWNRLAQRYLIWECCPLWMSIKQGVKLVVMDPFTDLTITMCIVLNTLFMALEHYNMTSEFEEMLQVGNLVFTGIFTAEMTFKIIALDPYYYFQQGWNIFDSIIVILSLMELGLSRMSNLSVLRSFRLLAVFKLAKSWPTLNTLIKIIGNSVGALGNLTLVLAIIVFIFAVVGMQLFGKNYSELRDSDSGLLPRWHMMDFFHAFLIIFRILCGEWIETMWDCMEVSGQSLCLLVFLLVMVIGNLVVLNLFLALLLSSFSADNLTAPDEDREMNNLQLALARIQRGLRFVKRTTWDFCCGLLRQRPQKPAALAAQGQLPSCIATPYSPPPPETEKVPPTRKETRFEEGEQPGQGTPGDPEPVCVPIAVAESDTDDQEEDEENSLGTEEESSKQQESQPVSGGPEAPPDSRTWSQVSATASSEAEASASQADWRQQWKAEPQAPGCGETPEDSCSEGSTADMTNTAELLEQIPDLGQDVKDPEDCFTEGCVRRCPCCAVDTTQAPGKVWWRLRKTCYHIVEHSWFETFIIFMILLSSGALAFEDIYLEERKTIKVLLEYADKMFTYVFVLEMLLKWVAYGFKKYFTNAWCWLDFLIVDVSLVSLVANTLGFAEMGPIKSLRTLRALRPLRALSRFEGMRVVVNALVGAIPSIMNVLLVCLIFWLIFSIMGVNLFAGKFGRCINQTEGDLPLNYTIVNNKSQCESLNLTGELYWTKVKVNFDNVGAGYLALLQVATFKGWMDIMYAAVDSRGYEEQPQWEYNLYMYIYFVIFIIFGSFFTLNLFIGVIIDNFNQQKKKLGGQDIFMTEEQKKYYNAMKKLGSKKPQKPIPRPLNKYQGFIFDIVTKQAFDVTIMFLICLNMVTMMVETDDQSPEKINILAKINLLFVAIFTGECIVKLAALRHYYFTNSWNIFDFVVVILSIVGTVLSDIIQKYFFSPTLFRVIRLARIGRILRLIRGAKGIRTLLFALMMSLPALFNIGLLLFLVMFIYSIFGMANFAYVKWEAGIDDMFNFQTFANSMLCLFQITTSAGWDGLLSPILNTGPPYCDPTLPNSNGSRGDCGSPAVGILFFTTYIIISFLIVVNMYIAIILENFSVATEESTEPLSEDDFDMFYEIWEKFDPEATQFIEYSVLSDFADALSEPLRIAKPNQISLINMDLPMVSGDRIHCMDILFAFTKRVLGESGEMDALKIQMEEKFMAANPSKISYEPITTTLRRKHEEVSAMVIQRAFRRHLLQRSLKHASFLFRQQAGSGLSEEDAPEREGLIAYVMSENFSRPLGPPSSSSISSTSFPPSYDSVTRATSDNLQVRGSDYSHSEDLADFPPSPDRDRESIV
Sequence of Cytochrome P450 2D6 (P10635 whole entry): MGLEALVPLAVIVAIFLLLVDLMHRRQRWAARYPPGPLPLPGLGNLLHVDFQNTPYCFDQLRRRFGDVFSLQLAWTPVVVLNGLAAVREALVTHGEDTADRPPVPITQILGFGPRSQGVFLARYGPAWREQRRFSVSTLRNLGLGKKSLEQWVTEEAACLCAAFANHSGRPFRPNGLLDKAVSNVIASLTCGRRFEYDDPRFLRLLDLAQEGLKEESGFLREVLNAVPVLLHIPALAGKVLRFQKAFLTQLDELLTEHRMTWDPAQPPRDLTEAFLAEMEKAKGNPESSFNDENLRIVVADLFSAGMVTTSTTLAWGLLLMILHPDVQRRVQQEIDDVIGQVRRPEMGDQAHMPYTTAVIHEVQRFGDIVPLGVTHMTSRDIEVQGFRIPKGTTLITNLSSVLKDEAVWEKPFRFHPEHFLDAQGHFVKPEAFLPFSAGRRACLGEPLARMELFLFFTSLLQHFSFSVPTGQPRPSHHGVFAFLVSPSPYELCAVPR

inhibition [2]: inactive
inhibition [3]: inactive
inhibition [4]: inactive
inhibition [6]: inactive
inhibition [8]: inactive
inhibition [9]: inactive
inhibition (Homo sapiens [10]): inactive
inhibition [11]: inactive
inhibition (Homo sapiens [12]): inactive
inhibition [14]: inactive
inhibition [15]: inactive
inhibition [18]: inactive
Structure (SMILES): O=S(=O)(Nc1cccc(F)n1)c1cc(F)c(O[C@H]2CCN(CC(F)(F)F)C[C@@H]2c2ccc(F)c(F)c2)c(F)c1 (stereo in doubt; (-)-6)
Activity (iPSC-CM [1]): inactive
Activity (iPSC-CM [5]): inactive
Ratio IC50 (Homo sapiens [7]): 7
Ratio IC50 (Homo sapiens [13]): 6
Ratio IC50 (Homo sapiens [16]): 1.1
Ratio IC50 (Homo sapiens [17]): 16

CLint scaled [22]: 16 mL/min/kg
CLint scaled [27]: 70 mL/min/kg
Structure (SMILES): O=S(=O)(Nc1cccc(F)n1)c1cc(F)c(O[C@H]2CCN(CC(F)(F)F)C[C@@H]2c2ccccc2)cc1F (racemic)
pIC50 [19]: 6.15
pIC50 [20]: 6.09
pIC50 [21]: 6.39
pIC50 [23]: 5.92
pIC50 [24]: 5.89
pIC50 [25]: 6.09
pIC50 [26]: 6.24

AUC [28]: 16 µM·h
concentration at 2 h [29]: 2.62 µM
pIC50 (Cytochrome P450 2C9): 5.16
bioavailability [31]: 45%
Vd [32]: 0.6 L/kg
CLint scaled [22]: 9 mL/min/kg
clearance [33]: 1.8 mL/min/kg
inhibition (INH) (Cytochrome P450 1A2): Not Active
inhibition (INH) (Cytochrome P450 2C19): Not Active
concentration at 2 h [34]: 9.37 µM
Cmax [35]: 5.2 µM
half-life [37]: 4.3 h
AUC [38]: 72 µM·h
Kp at 2 h [39]: 0.28
inhibition (INH) (Cytochrome P450 2D6): Not Active
CLint scaled [27]: 50 mL/min/kg
half-life [40]: 4.1 h
inhibition (INH) (Cytochrome P450 3A4): Not Active
Structure (SMILES): O=S(=O)(Nc1cccc(F)n1)c1cc(F)c(OC2CCN(CC(F)(F)F)CC2c2ccc(F)c(F)c2)cc1F (single isomer, unassigned; (-))
pIC50 [19]: 6.62
pIC50 [30]: < 5.00
pKi [36]: 5.69
